Active and inactive are the calls of the source. The rule behind the calls is not given here.
Tests used:
[1] = Half life in mouse blood; assay type: ADME, tissue-based
[2] = target: T1, Protein cereblon/Dual specificity tyrosine-phosphorylation-regulated kinase 1A (Homo sapiens, UniProt Q13627+Q96SW2); test: PROTAC activity at CRBN/DYRK1A in HEK293 cells assessed as induction of degradation of DYRK1A at 100 nM preincubated for 24 to 72 hrs followed by washout and subsequent addition of medium containing compounds measured for 48 hrs; assay type: cell-based; settings: time 72-120 hrs
[3] = Half life in mouse at 10 mg/kg, ip administered as single dose; assay type: ADME, organism-based; settings: in vivo
[4] = target: T1, Protein cereblon/Dual specificity tyrosine-phosphorylation-regulated kinase 1A; test: PROTAC activity at CRBN/DYRK1A in HEK293 cells assessed as induction of degradation of DYRK1A at 1 to 10000 nM incubated for 24 hrs in presence of leucettine-41; assay type: cell-based; settings: dose 1-10000 nM
[5] = target: T1, Protein cereblon/Dual specificity tyrosine-phosphorylation-regulated kinase 1A; test: PROTAC activity at CRBN/DYRK1A in human SH-SY5Y cells assessed as induction of degradation of DYRK1A at 100 nM incubated for 8 hrs relative to control; assay type: cell-based
[6] = target: T1, Protein cereblon/Dual specificity tyrosine-phosphorylation-regulated kinase 1A; test: PROTAC activity at CRBN/DYRK1A in HEK293 cells assessed as induction of degradation of DYRK1A at 1 to 10000 nM incubated for 24 hrs in presence of 4-(3-(2-fluoro-4-(4-methylpiperazin-1-yl)phenyl)-2-methyl-3H-imidazo[4,5-b]pyridin-5-yl)pyridin-2-amine; assay type: cell-based; settings: dose 1-10000 nM
[7] = target: T1, Protein cereblon/Dual specificity tyrosine-phosphorylation-regulated kinase 1A; test: Competitive binding affinity to CRBN/DYRK1A (unknown origin) assessed as association rate constant Kon; assay type: protein assay
[8] = Permeability of the compound in human Caco-2 cells across apical to basolateral side; assay type: ADME, cell-based; settings: read-out: permeability
[9] = MRT in mouse at 10 mg/kg, ip administered as single dose; assay type: ADME, organism-based; settings: in vivo
[10] = Metabolic stability in rat liver microsomes assessed as half life; assay type: ADME, Microsome

Compound: Cc1nc2ccc(-c3ccnc(N)c3)nc2n1-c1ccc(N2CCN(CC#Cc3ccc(N4CCC(C(=O)N5CCC(n6cc(CNc7cccc8c7C(=O)N(C7CCC(=O)NC7=O)C8=O)cn6)CC5)CC4)nc3)CC2)c(F)c1 (stereo not given)
- half-life [1]: 15.2 h
- Activity [2]: Active
- half-life [3]: 4.75 h
- Activity [4]: inactive
- Activity [5]: 100%
- Activity [6]: inactive
- K [7]: 1.83 10^5/M/s
- Papp A→B [8]: < 0.27 ×10⁻⁶ cm/s
- MRT [9]: 5.77 h
- half-life [10]: 1.64 h
